In this assay the target is T1, androgen receptor (AR-LBD) (Rattus norvegicus, UniProt P15207).
T1 construct: 5 μL of 2×AR-LBD/Fluoromone AL Red Complex contained in the kit; purchased Invitrogen
T1 sequence (P15207 651-882 limits assumed): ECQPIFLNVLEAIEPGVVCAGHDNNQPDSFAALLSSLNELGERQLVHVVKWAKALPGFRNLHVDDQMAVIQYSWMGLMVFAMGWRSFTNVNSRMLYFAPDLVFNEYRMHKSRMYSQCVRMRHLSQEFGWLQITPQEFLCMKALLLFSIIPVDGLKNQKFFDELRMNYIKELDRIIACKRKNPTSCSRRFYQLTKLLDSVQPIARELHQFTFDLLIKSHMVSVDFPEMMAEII
Briefly: Evaluation of androgen receptor affinity (PolarScreen Androgen Receptor Competitor Assay Kit, Red; fluorescence polarization). The following applies: 22° C. for 5 hours, relative to binding rate of 1 μM DHT, read-out: AR affinity (pEC50) (converted). In a few lines:
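Duplicate wells of test compound were mixed with the kit's rat AR-LBD–Fluoromone AL Red tracer complex and left 5 hours at 22 °C before polarization was read. A 4-parameter fit gave pEC50, with binding rate referenced to 1 μM dihydrotestosterone.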
A general note: Fluorescence polarisation rises when a labelled molecule tumbles more slowly, as on binding a larger partner.

For `Cc1cc(CN(c2ccc(C#N)cc2)c2nc(C(=O)NS(C)(=O)=O)c(C)s2)no1` [Compound 445, 2-[4-cyano-N-[(5-methylisoxazol-3-yl)methyl]anilino]-5-methyl-N-methylsulfonyl-thiazole-4-carboxamide], the EC50 is 0.631 µM.

In the case of `CC[C@H](C)CN(c1ccc(C#N)cc1)c1nc(C(=O)NS(C)(=O)=O)c(C)s1` [Compound 446, 2-(4-cyano-N-[(2S)-2-methylbutyl]anilino)-5-methyl-N-methylsulfonyl-thiazole-4-carboxamide], the EC50 was 0.316 µM.

As for `C=CCCN(c1ccc(C#N)cc1)c1nc(C(=O)NS(C)(=O)=O)c(C)s1` [Compound 448, 2-(N-but-3-enyl-4-cyano-anilino)-5-methyl-N-methylsulfonyl-thiazole-4-carboxamide], the EC50 was 1.26 µM.

On to `Cc1sc(N(CCOC(C)C)c2ccc(C#N)cc2)nc1C(=O)NS(C)(=O)=O` [Compound 449, 2-[4-cyano-N-(2-isopropoxyethyl)anilino]-5-methyl-N-methylsulfonyl-thiazole-4-carboxamide], for which the EC50 was 0.398 µM.

For `Cc1sc(N(CCn2ccnc2)c2ccc(C#N)cc2)nc1C(=O)NS(C)(=O)=O` [Compound 458, 2-[4-cyano-N-(2-imidazol-1-ylethyl)anilino]-5-methyl-N-methylsulfonyl-thiazole-4-carboxamide], the EC50 is above 2 µM.

For the compound `Cc1sc(N(Cc2nc3ccccc3[nH]2)c2ccc(C#N)cc2)nc1C(=O)NS(C)(=O)=O` [Compound 460, 2-[N-(1H-benzimidazol-2-ylmethyl)-4-cyano-anilino]-5-methyl-N-methylsulfonyl-thiazole-4-carboxamide], the EC50 was 1.26 µM.

In the case of `Cc1sc(N(Cc2ccccc2)CC(O)c2ccccc2)nc1C(=O)NS(C)(=O)=O` (centres unmarked) [Compound 462, 2-[benzyl-(2-hydroxy-2-phenyl-ethyl)amino]-5-methyl-N-methylsulfonyl-thiazole-4-carboxamide], the EC50 was 1.26 µM.

For the compound `Cc1sc(N(c2ccc(C#N)cc2)[C@H](CO)c2ccccc2)nc1C(=O)NS(C)(=O)=O` [Compound 467, 2-(4-cyano-N-[(1S)-2-hydroxy-1-phenyl-ethyl]anilino)-5-methyl-N-methylsulfonyl-thiazole-4-carboxamide], the EC50 was above 2 µM.

For the compound `Cc1sc(N(CC(O)c2ccccc2)c2ccc(C#N)cc2)nc1C(=O)NS(C)(=O)=O` (centres unmarked) [Compound 468, 2-(4-cyano-N-(2-hydroxy-2-phenyl-ethyl)anilino)-5-methyl-N-methylsulfonyl-thiazole-4-carboxamide], the EC50 was above 2 µM.

Turning to `Cc1sc(N(CCc2cccc(N(C)C)c2)c2ccc(C#N)cc2)nc1C(=O)NS(C)(=O)=O` [Compound 475, 2-[4-cyano-N-[2-[3-(dimethylamino)phenyl]ethyl]anilino]-5-methyl-N-methylsulfonyl-thiazole-4-carboxamide], the EC50 is 0.794 µM.

On to `Cc1sc(N(C[Si](C)(C)c2ccccc2)c2ccc(C#N)cc2)nc1C(=O)NS(C)(=O)=O` [Compound 477, 2-[4-cyano-N-[[dimethyl(phenyl)silyl]methyl]anilino]-5-methyl-N-methylsulfonyl-thiazole-4-carboxamide], for which the EC50 is above 2 µM.

In the case of `Cc1sc(N(CCc2ccc(N(C)C)cc2)c2ccc(C#N)cc2)nc1C(=O)NS(C)(=O)=O` [Compound 480, 2-[4-cyano-N-[2-[4-(dimethylamino)phenyl]ethyl]anilino]-5-methyl-N-methylsulfonyl-thiazole-4-carboxamide], the EC50 is above 2 µM.

On to `Cc1sc(N(CCC2CCCN2C)c2ccc(C#N)cc2)nc1C(=O)NS(C)(=O)=O` (centres unmarked) [Compound 481, 2-[4-cyano-N-[2-(1-methylpyrrolidin-2-yl)ethyl]anilino]-5-methyl-N-methylsulfonyl-thiazole-4-carboxamide], for which the EC50 is above 2 µM.

`Cc1sc(N(c2ccc(C#N)cc2)[C@@H](CO)c2ccccc2)nc1C(=O)NS(C)(=O)=O` [Compound 483, 2-(4-cyano-N-[(1R)-2-hydroxy-1-phenyl-ethyl]anilino)-5-methyl-N-methylsulfonyl-thiazole-4-carboxamide]: the EC50 is above 2 µM.

As to `Cc1sc(N(Cc2ncccc2OCc2ccccc2)c2ccc(C#N)cc2)nc1C(=O)NS(C)(=O)=O` [Compound 490, 2-[N-[(3-benzyloxy-2-pyridyl)methyl]-4-cyano-anilino]-5-methyl-N-methylsulfonyl-thiazole-4-carboxamide], the EC50 is above 2 µM.

On to `Cc1sc(N(Cc2ccc(OC(F)(F)F)cc2)c2ccc(C#N)cc2)nc1C(=O)NS(=O)(=O)CCCN1CCOCC1` [Compound 541, 2-[4-cyano-N-[[4-(trifluoromethoxy)phenyl]methyl]anilino]-5-methyl-N-(3-morpholinopropylsulfonyl)thiazole-4-carboxamide], for which the EC50 was above 2 µM.

On to `Cc1sc(N(Cc2ccc(OCCO)cc2)c2ccc(C#N)cc2)nc1C(=O)NS(C)(=O)=O` [Compound 569, 2-[4-cyano-N-[[4-(2-hydroxyethoxy)phenyl]methyl]anilino]-5-methyl-N-methylsulfonyl-thiazole-4-carboxamide], for which the EC50 is 0.631 µM.

Regarding `Cc1sc(N(Cc2ccc(OCC(=O)N(C)C)cc2)c2ccc(C#N)cc2)nc1C(=O)NS(C)(=O)=O` [Compound 570, 2-[4-cyano-N-[[4-[2-(dimethylamino)-2-oxo-ethoxy]phenyl]methyl]anilino]-5-methyl-N-methylsulfonyl-thiazole-4-carboxamide], the EC50 was 1.26 µM.

Consider `Cc1sc(N(Cc2ccc(OCCN3CCOCC3)cc2)c2ccc(C#N)cc2)nc1C(=O)NS(C)(=O)=O` [Compound 572, 2-[4-cyano-N-[[4-(2-morpholinoethoxy)phenyl]methyl]anilino]-5-methyl-N-methylsulfonyl-thiazole-4-carboxamide], for which the EC50 is 1.58 µM.

Consider `Cc1sc(N(Cc2ccc(OCC(=O)N3CCOCC3)cc2)c2ccc(C#N)cc2)nc1C(=O)NS(C)(=O)=O` [Compound 573, 2-[4-cyano-N-[[4-(2-morpholino-2-oxo-ethoxy)phenyl]methyl]anilino]-5-methyl-N-methylsulfonyl-thiazole-4-carboxamide], for which the EC50 was 1.26 µM.

Regarding `CNC(=O)COc1ccc(CN(c2ccc(C#N)cc2)c2nc(C(=O)NS(C)(=O)=O)c(C)s2)cc1` [Compound 574, 2-[4-cyano-N-[[4-[2-(methylamino)-2-oxo-ethoxy]phenyl]methyl]anilino]-5-methyl-N-methylsulfonyl-thiazole-4-carboxamide], the EC50 is above 2 µM.

For the compound `Cc1sc(N(Cc2ccc(OCCN3CCCC3=O)cc2)c2ccc(C#N)cc2)nc1C(=O)NS(C)(=O)=O` [Compound 575, 2-[4-cyano-N-[[4-[2-(2-oxopyrrolidin-1-yl)ethoxy]phenyl]methyl]anilino]-5-methyl-N-methylsulfonyl-thiazole-4-carboxamide], the EC50 is 0.398 µM.

Take `Cc1sc(N(Cc2ccc(OCCCN3CCCC3=O)cc2)c2ccc(C#N)cc2)nc1C(=O)NS(C)(=O)=O` [Compound 578, 2-[4-cyano-N-[[4-[3-(2-oxopyrrolidin-1-yl)propoxy]phenyl]methyl]anilino]-5-methyl-N-methylsulfonyl-thiazole-4-carboxamide]: the EC50 was 0.794 µM.

Turning to `Cc1sc(N(Cc2cccc(OCCO)c2)c2ccc(C#N)cc2)nc1C(=O)NS(C)(=O)=O` [Compound 587, 2-[4-cyano-N-[[3-(2-hydroxyethoxy)phenyl]methyl]anilino]-5-methyl-N-methylsulfonyl-thiazole-4-carboxamide], the EC50 was 0.501 µM.

As for `CS(=O)(=O)NC(=O)c1nc(N(Cc2ccccc2)c2ccc(C#N)cc2)sc1-c1ccccc1` [Compound 601, 2-(N-benzyl-4-cyano-anilino)-N-methylsulfonyl-5-phenyl-thiazole-4-carboxamide], the EC50 is above 2 µM.

For `Cc1sc(N(Cc2ccccc2)c2ccc(C#N)cn2)nc1C(=O)NS(C)(=O)=O` [Compound 602, 2-[benzyl-(5-cyano-2-pyridyl)amino]-5-methyl-N-methylsulfonyl-thiazole-4-carboxamide], the EC50 was 0.501 µM.

Turning to `Cc1sc(N(Cc2ccccc2)c2ccc(C#N)nc2)nc1C(=O)NS(C)(=O)=O` [Compound 604, 2-[benzyl-(6-cyano-3-pyridyl)amino]-5-methyl-N-methylsulfonyl-thiazole-4-carboxamide], the EC50 was above 2 µM.

For `Cc1sc(N(Cc2ccccc2)c2cccc(CCO)c2)nc1C(=O)NS(C)(=O)=O` [Compound 605, 2-[N-benzyl-3-(2-hydroxyethyl)anilino]-5-methyl-N-methylsulfonyl-thiazole-4-carboxamide], the EC50 is above 2 µM.

`Cc1sc(N(Cc2ccccc2)c2ccccc2CO)nc1C(=O)NS(C)(=O)=O` [Compound 606, 2-[N-benzyl-2-(hydroxymethyl)anilino]-5-methyl-N-methylsulfonyl-thiazole-4-carboxamide]: the EC50 is above 2 µM.

For `Cc1oc(N(Cc2ccc(C#N)cc2)c2ccc(C#N)cc2)nc1C(=O)NS(C)(=O)=O` [Compound 615, 2-[4-cyano-N-[(4-cyanophenyl)methyl]anilino]-5-methyl-N-methylsulfonyl-oxazole-4-carboxamide], the EC50 is 0.398 µM.

Regarding `Cc1nc(CN(c2ccc(C#N)cc2)c2nc(C(=O)NS(C)(=O)=O)c(C)o2)cs1` [Compound 619, 2-[4-cyano-N-[(2-methylthiazol-4-yl)methyl]anilino]-5-methyl-N-methylsulfonyl-oxazole-4-carboxamide], the EC50 is above 2 µM.

In the case of `Cc1sc(N(c2ccc(C#N)cc2F)[C@@H](CO)c2ccccc2)nc1C(=O)NS(C)(=O)=O` [Compound 667, 2-(4-cyano-2-fluoro-N-[(1R)-2-hydroxy-1-phenyl-ethyl]anilino)-5-methyl-N-methylsulfonyl-thiazole-4-carboxamide], the EC50 was above 2 µM.

(Values after patent US10689354B2, “Aminoazole derivative” (Teijin Pharma Limited, priority 2015, dated 2020).)
